The text below walks through data of patent US20210169892A1, “MODULATORS OF THE INTEGRATED STRESS PATHWAY” (Calico Life Sciences LLC, priority 2017, published 2021).

The subject of this experiment is HEK293T cells carrying the ATF4 luciferase reporter. The experiment in a line: ATF4-Luc assay (in vitro model of vanishing white matter disease). It is filed as cell-based. The settings on record: Homo sapiens, HEK-293T; HEK293T cells with ATF4 luciferase reporter, 1 μg/mL tunicamycin, 7 hours, One Glo luminescence. In outline: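 Stable HEK293T line with human ATF4 5′-UTR–firefly luciferase reporter treated with 1 μg/mL tunicamycin plus 200 nM compound for 7 h. Luminescence read; EC50 derived.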
In general terms: Reporter assays use an easily measured gene product as a stand-in for the process of interest.

By EC50 is commonly meant the concentration at which the effect is half-maximal.

Turning to `CCOCCS(=O)(=O)N1CC(C(=O)NC23CC(NC(=O)COc4ccc(Cl)c(F)c4)(C2)C3)Oc2ccc(Cl)cc21` (stereo not shown) [Compound 139, 6-chloro-N-{3-[2-(4-chloro-3-fluorophenoxy)acetamido]bicyclo[1.1.1]pentan-1-yl}-4-(2-ethoxyethanesulfonyl)-3,4-dihydro-2H-1,4-benzoxazine-2-carboxamide], the EC50 lay in the range of 50 to 250 nM.
